Measurements taken from PMC5556071, “ATR inhibition facilitates targeting of leukemia dependence on convergent nucleotide biosynthetic pathways” (Nature Communications, 2017).
Values joined by “and” are separate entries in the source; they are usually repeats but may differ in a detail not shown here. Identical values can stand only once.

How the values were obtained:
CEM cells [1] = experiment: Targeted LC-MS/MS-MRM of de novo and salvage dCTP biosynthesis (nucleotide pools and newly replicated DNA); type: cell-based, human
Description: Cells were transferred into RPMI-1640 without glucose and supplemented with 10% dialyzed FBS (Gibco) containing the following labeled substrates: precursors for de novo [U-^13C6]glucose (Sigma-Aldrich, 389374) at 11 mM; precursors for purine salvage [U-^13C10,^15N5]dA (Cambridge Isotopes, CIL 3896), [^15N5]dA (Cambridge Isotopes, NLM-3895) and [^15N5]dG (Cambridge Isotopes, NLM-3899) at 5 µM or as indicated; and precursors for pyrimidine salvage: [U-^13C9,^15N3]dC (Silantes, 124603602) and [U-^13C10,^15N2]dT (Cambridge Isotopes, CNLM-3902) at 5 µM and [^15N2]orotate (Cambridge Isotopes, NLM-1048) at indicated concentrations. The cells were incubated for 12 h or as indicated before sample collection and processing.
The rates of dCTP incorporation into the DNA were determined using linear regression with procedure GLM in SAS (v. 9.4). DNA % label was transformed using a shifted log addition of 1 due to the presence of zeros in the data set. Rates were calculated using the slope of the regression line for the log transformed data and are presented in the table with the associated standard errors, along with the ratio between the rate of incorporation into DNA by the de novo and salvage pathways (Table 1).
Cell cycle synchronization. Cells were treated with a CDK4/6 inhibitor, Pablociclib or PD-0332991 (Selleckchem, S1116) for 18 h to synchronize them in the G1 phase. Subsequently, cells were washed twice with PBS containing 2% FBS (Omega Scientific) and released into fresh media. […]
Clinical Microarray Core on an Illumina HiSeq3000 using the SeqCap EZ Exome Enrichment Kit v3.0 (Roche).
Reads were mapped to UCSC hg19 (bwa-mem), deduplicaed (PicardTools), and subjected to base quality score recalibration and realignment around known indels according to the Broad Institute Genome Analysis Toolkit (GATK) Best Practices v3.0. Variants in genes associated with nucleotide biosynthesis were identified using the GATK HaplotypeCaller, and annotated with Oncotator (http://portals.broadinstitute.org/oncotator/). dNTP sample processing. 0.5 – 1 x 10^6 cells were collected into 1.5 mL microcentrifuge tubes and centrifuged (450 x g, 4 min, 4 °C). The supernatant was carefully aspirated and the cells were washed twice with 1 mL of cold PBS, followed each time by centrifugation (450 x g, 4 min 4 °C). The PBS were aspirated.
Thereafter, the pellets were treated with 10 µL of 10% trifluoroacetic acid with internal standards (1 µM […]
s, and incubated on ice for 10 min. 40 µL of 500 mM ammonium acetate, pH = 9.3, with the same internal standard (1 µM [15N3]dCMP and [15N3]dCTP) was then added and the samples were vigorously vortexed again for 30 s. The samples were centrifuged (14,000 x g, 10 min, 4 °C) to remove cell debris. The supernatants (~ 40 µL) were transferred into HPLC injector vials. Stock solutions (10 mM) of rCTP, rCDP, dCMP, dCDP, and dCTP (Sigma Aldrich) were prepared individually in water, and stored at –20 °C before use to generate calibration standards. Calibration standards were prepared and mixed together in water with internal standards (1 µM [15N3]dCMP and [15N3]dCTP) to make working stock concentrations in 100 nM – 100 µM range.
Calibration standards were diluted 10-fold into the same nucleotide extraction solution of 10% TFA/500 mM ammonium acetate (1:4, v/v) with internal standards (1 µM [15N3]dCMP and [15N3]dCTP) to give a final concentration in 10 nM – 10 µM. Nucleotide and calibration samples were processed together to minimize […]
DNA sample processing. Genomic DNA from 0.5 – 1 x 10^4 cells was extracted using the Quick-gDNA MiniPrep kit (Zymo Research, D3021) and hydrolyzed to nucleosides using the DNA Degradase Plus kit (Zymo Research, E2021), following manufacturer-supplied instructions. In the final step of DNA extraction, 50 µL of […]
water was used to elute the DNA into 1.5 mL microcentrifuge tubes. A nuclease solution (5 µL; 10X buffer/DNA Degradase Plus™/water, 2.5/1/1.5, v/v/v) was added to 20 µL of the eluted genomic DNA in an HPLC injector […]
vial. […]

CEM cells [2] = experiment: Cell cycle analysis of asynchronous cells by flow cytometry (S-phase population, S-phase arrest); type: cell-based, human; conditions: CEM, 24 h
Description: Cell cycle histograms. Cells were plated at a density of 0.5 x 10^6 cells/mL in respective media or drug treated media. Following 24 h incubation, cells were harvested and washed twice with PBS twice before staining with 0.5 ml of propidium iodide (Calbiochem, #P3566, 1 µg/mL) solution containing Ribonuclease A and 0.3% Triton-X 100. The samples were protected from light before acquisition by flow cytometry.
Cell cycle kinetics and cell cycle progression by intracellular detection of DNA-incorporated 5-ethynyl-2-deoxyuridine (EdU). CEM T-ALL cells were plated at a density of 0.5 x 10^6 cells/mL. Cells were pulsed with 10 µM EdU (Invitrogen) for 1 h, washed twice with PBS, and released in fresh media containing 5 µM deoxyribonucleosides, with and without drugs. Cells were collected at different time points following release in fresh media, and then fixed with 4% paraformaldehyde and permeabilized using saponin perm/wash reagent (Invitrogen). Cells were then stained with azide-Alexa Fluor 647 by Click reaction according to manufacturer’s protocol (Invitrogen; Click-iT EdU Flow cytometry kit, #C10634). […]

[3] = CEM 12 h, 1 uM VE-822, 1 uM DI-82, 500 nM 3-AP, #1-#3

SMILES: NC(=S)N/N=C/c1ncccc1N [3-AP]
- % sum abundance, de novo DNA-C, mass increase in nucleobase +0, in deoxyribose +3 (CEM cells [1]; [3]): 0.0554% and 0.0456% and 0.04%
- % sum abundance, de novo DNA-C, mass increase in nucleobase +0, in deoxyribose +4 (CEM cells [1]; [3]): 0.02% and 0.0358% and 0.0465%
- % sum abundance, de novo DNA-C, mass increase in nucleobase +0, in deoxyribose +5 (CEM cells [1]; [3]): 0.55% and 0.53% and 0.50%
- % sum abundance, de novo DNA-C, mass increase in nucleobase +1, in deoxyribose +3 (CEM cells [1]; [3]): 0.00%
- % sum abundance, de novo DNA-C, mass increase in nucleobase +1, in deoxyribose +4 (CEM cells [1]; [3]): 0.00%
- % sum abundance, de novo DNA-C, mass increase in nucleobase +1, in deoxyribose +5 (CEM cells [1]; [3]): 0.07% and 0.0542% and 0.0459%
- % sum abundance, de novo DNA-C, mass increase in nucleobase +2, in deoxyribose +4 (CEM cells [1]; [3]): 0.00%
- % sum abundance, de novo DNA-C, mass increase in nucleobase +2, in deoxyribose +5 (CEM cells [1]; [3]): 0.0465% and 0.04% and 0.032%
- % sum abundance, de novo DNA-C, mass increase in nucleobase +3, in deoxyribose +4 (CEM cells [1]; [3]): 0.00%
- % sum abundance, de novo DNA-C, mass increase in nucleobase +3, in deoxyribose +5 (CEM cells [1]; [3]): 0.00%
- % sum abundance, de novo DNA-C, mass increase in nucleobase +4, in deoxyribose +4 (CEM cells [1]; [3]): 0.00%
- % sum abundance, de novo DNA-C, mass increase in nucleobase +4, in deoxyribose +5 (CEM cells [1]; [3]): 0.00%
- % sum abundance, salvage DNA-C, mass increase in nucleobase +5, in deoxyribose +0 (CEM cells [1]; [3]): 0.00%
- % sum abundance, salvage DNA-C, mass increase in nucleobase +5, in deoxyribose +4 (CEM cells [1]; [3]): 0.00%
- % sum abundance, salvage DNA-C, mass increase in nucleobase +5, in deoxyribose +5 (CEM cells [1]; [3]): 0.00%
- % sum abundance, salvage DNA-C, mass increase in nucleobase +6, in deoxyribose +0 (CEM cells [1]; [3]): 0.00%
- % sum abundance, salvage DNA-C, mass increase in nucleobase +6, in deoxyribose +4 (CEM cells [1]; [3]): 0.00%
- % sum abundance, salvage DNA-C, mass increase in nucleobase +6, in deoxyribose +5 (CEM cells [1]; [3]): 0.39% and 0.40%
- % sum abundance, salvage DNA-C, mass increase in nucleobase +7, in deoxyribose +0 (CEM cells [1]; [3]): 0.00%
- % sum abundance, salvage DNA-C, mass increase in nucleobase +7, in deoxyribose +4 (CEM cells [1]; [3]): 0.23% and 0.25%
- % sum abundance, salvage DNA-C, mass increase in nucleobase +7, in deoxyribose +5 (CEM cells [1]; [3]): 4.69% and 4.96% and 4.68%
- % sum abundance, unlabeled DNA-C, mass increase in nucleobase +0, in deoxyribose +0 (CEM cells [1]; [3]): 83.63% and 83.39% and 83.92%
- % sum abundance, unlabeled DNA-C, mass increase in nucleobase +0, in deoxyribose +1 (CEM cells [1]; [3]): 4.68% and 4.72% and 4.61%
- % sum abundance, unlabeled DNA-C, mass increase in nucleobase +0, in deoxyribose +2 (CEM cells [1]; [3]): 0.67% and 0.60% and 0.58%
- % sum abundance, unlabeled DNA-C, mass increase in nucleobase +1, in deoxyribose +0 (CEM cells [1]; [3]): 4.40% and 4.42% and 4.39%
- % sum abundance, unlabeled DNA-C, mass increase in nucleobase +1, in deoxyribose +1 (CEM cells [1]; [3]): 0.26%
- % sum abundance, unlabeled DNA-C, mass increase in nucleobase +1, in deoxyribose +2 (CEM cells [1]; [3]): 0.00%
- % sum abundance, unlabeled DNA-C, mass increase in nucleobase +2, in deoxyribose +0 (CEM cells [1]; [3]): 0.31% and 0.29% and 0.26%
- % sum abundance, unlabeled DNA-C, mass increase in nucleobase +2, in deoxyribose +1 (CEM cells [1]; [3]): 0.00%
- % sum abundance, unlabeled DNA-C, mass increase in nucleobase +2, in deoxyribose +2 (CEM cells [1]; [3]): 0.00%
- % sum abundance, unlabeled DNA-C, mass increase in nucleobase +3, in deoxyribose +0 (CEM cells [1]; [3]): 0.00%
- % sum abundance, unlabeled DNA-C, mass increase in nucleobase +3, in deoxyribose +1 (CEM cells [1]; [3]): 0.00%
- % sum abundance, unlabeled DNA-C, mass increase in nucleobase +4, in deoxyribose +0 (CEM cells [1]; [3]): 0.00%
- increase of incorporation of salvage-produced dCTP into DNA (CEM cells [1]; CEM, 500 nM 3-AP, 12 h): > 1.5 fold
- rCTP and rCDP pools (CEM cells [1]; CEM, 500 nM 3-AP, 12 h): doubled
- reduction in the incorporation of de novo produced dCTP into DNA (CEM cells [1]; CEM, 500 nM 3-AP, 12 h): ~ 19 fold
- salvage dC nucleotide pools (CEM cells [1]; CEM, 500 nM 3-AP, 12 h): doubled
- increase of salvage contributions to the dCMP, dCDP and dCTP pools (CEM cells [1]; asynchronous CEM, 12 h): approximately twofold
- concentration inducing S-phase arrest (CEM cells [2]): 0.5 µM
